Read-outs that look alike come from different tables or passages of the source. Starred links: 1 amine or outer side, 2 acyl side, 3 side chain; linkers in the order of their positions; H or OH if unused. Non-standard residues stand in square brackets, D forms with d. Residues, ends and D or L forms follow the SMILES beside them. Groups on a side chain read outwards from the residue. *: point of attachment. C18 diacid = O=C(O)CCCCCCCCCCCCCCCCC(=O)*; γGlu = O=C(O)[C@H](CCC(=O)[*:2])N[*:1]; AEEA = NCCOCCOCC(=O)O; Aib = CC(C)(N)C(=O)O
Columns and labels:
[1] = Physical stability, dynamic light scattering assay (Example 15); assay type: physicochemical; conditions: for Apparent Rh [nm] 4 weeks / Scattering Intensity (I) [%] 4 weeks: 4 weeks at 40° C.
Outline: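 DLS at 837 nm, 150° angle, +25° C; Rh, scattering intensity and mass contribution measured at 0 weeks and after 4 weeks at 40° C. Rh and D compared at 1, 5 and 10 mg/ml as kD surrogate; separate measurements at 300 μM, purity-corrected.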

rat CRF2R α receptor = assay: cAMP agonism at rat CRF2R α receptor in A7R5 rat aortic smooth muscle cells (Example 8); assay type: cell-based; conditions: cAMP HTRF, A7R5 rat aortic smooth muscle cell line, 0% HSA
Outline: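 Potency (EC50) is the concentration reaching half-maximal activation, with responses scaled so that 1000 nM urocortin 2 equals 100%. Intracellular cAMP was quantified by homogeneous time-resolved fluorescence at 665/620 nm, 1 h after lysis-buffer reagents. Compound stimulation lasted 30 min at room temperature on 2000 IBMX-treated (2 mM) cells per well in HEPES-buffered HBSS.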

human CRF2α receptor = target: T1, human CRF2α receptor (Homo sapiens, UniProt Q13324); assay: cAMP agonism at human CRF2 α receptor in TeloHEAC cells (Example 7); assay type: cell-based; conditions: cAMP HTRF, TeloHEAC cells stably expressing human CRF2 α
T1 construct: expressed in transfected cells; host or cells: TeloHEAC
T1 sequence (Q13324 1-411): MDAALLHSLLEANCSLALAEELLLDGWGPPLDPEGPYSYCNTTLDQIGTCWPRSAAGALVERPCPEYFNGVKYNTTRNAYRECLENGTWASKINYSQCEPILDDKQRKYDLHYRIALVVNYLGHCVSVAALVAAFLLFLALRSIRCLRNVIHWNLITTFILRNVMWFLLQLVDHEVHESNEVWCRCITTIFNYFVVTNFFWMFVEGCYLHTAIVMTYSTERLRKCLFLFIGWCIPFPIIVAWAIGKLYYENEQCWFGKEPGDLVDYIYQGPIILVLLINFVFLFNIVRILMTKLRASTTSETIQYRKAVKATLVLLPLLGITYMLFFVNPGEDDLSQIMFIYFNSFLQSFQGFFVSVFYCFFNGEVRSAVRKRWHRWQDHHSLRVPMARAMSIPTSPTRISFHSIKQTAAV
Outline: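 Percent activation was referenced to 1000 nM UCN2 (100%), and EC50 values taken as concentrations giving half of maximal response. The read-out was a homogeneous time-resolved fluorescence cAMP kit, fluorescence ratio 665/620 nm. Thawed cells (2000/well) saw compound for 30 min at RT in buffer with 2 mM IBMX and 0%/0.1% HSA.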

CRF1R receptor = target: T2, CRF1R receptor (Homo sapiens, UniProt P34998); assay: cAMP activity at anti-target CRF1R, CRF1R-overexpression CHO cell line (Example 9); assay type: cell-based; conditions: CRF1R-overexpression CHO cell line; for EC50: 0% HSA; for Emax: read-out: Emax (%)
T2 construct: host or cells: CHO-K1 clone 2
T2 sequence (P34998 24-415): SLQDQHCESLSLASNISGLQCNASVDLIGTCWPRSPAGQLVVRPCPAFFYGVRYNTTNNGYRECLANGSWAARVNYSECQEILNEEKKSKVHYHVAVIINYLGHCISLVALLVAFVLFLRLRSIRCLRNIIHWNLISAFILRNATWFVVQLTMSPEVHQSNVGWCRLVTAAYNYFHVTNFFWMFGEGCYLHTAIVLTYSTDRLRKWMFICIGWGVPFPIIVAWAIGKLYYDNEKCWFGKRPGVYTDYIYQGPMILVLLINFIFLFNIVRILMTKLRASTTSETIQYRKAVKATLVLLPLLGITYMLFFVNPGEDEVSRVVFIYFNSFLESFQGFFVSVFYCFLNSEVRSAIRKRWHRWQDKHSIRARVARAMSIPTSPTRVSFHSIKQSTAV
Outline: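 Using thawed CRF1R-overexpressing CHO cells at 2000 per well, compound is applied for 30 min at RT in HBSS/HEPES buffer with IBMX. Cellular cAMP content is determined via HTRF, and percent activity is calculated against 1000 nM UCN2 defined as 100%.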

[2] = Buffer A (100 mM acetate, pH 4.5)
[3] = Buffer D (20 mM phosphate, pH 7.4)
[4] = 0% HSA, read-out: EC50 [nM], 0% HSA
[5] = 0.1% HSA, read-out: EC50 [nM], 0.1% HSA
[6] = Buffer B (100 mM acetate, pH 4.5, 2.7 mg/ml m-cresol)
[7] = Buffer E (20 mM acetate, pH 4.5)

SMILES	Apparent Rh [nm] 0 weeks [1, 2]	Scattering Intensity (I) [%] 0 weeks [1, 2]	Apparent Rh [nm] 4 weeks [1, 2]	Scattering Intensity (I) [%] 4 weeks [1, 2]	Apparent Rh [nm] 0 weeks [1, 3]	Scattering Intensity (I) [%] 0 weeks [1, 3]	Apparent Rh [nm] 4 weeks [1, 3]	Scattering Intensity (I) [%] 4 weeks [1, 3]	EC50 (rat CRF2R α receptor)	EC50 (human CRF2α receptor; [4])	EC50 (human CRF2α receptor; [5])	EC50 (CRF1R receptor)	Emax (CRF1R receptor)	Apparent Rh [nm] 0 weeks [1, 6]	Scattering Intensity (I) [%] 0 weeks [1, 6]	Apparent Rh [nm] 4 weeks [1, 6]	Scattering Intensity (I) [%] 4 weeks [1, 6]	further results
CC[C@H](C)[C@H](N)C(=O)N[C@H](C(=O)N[C@@H](CC(C)C)C(=O)N[C@@H](CO)C(=O)N[C@@H](CC(C)C)C(=O)N[C@@H](CC(=O)O)C(=O)N[C@@H](C(=O)N1CCC[C@H]1C(=O)N[C@H](C(=O)N[C@@H](CCCCN)C(=O)N[C@@H](CC(C)C)C(=O)N[C@@H](CCCCNC(=O)COCCOCCNC(=O)COCCOCCNC(=O)CC[C@H](NC(=O)CCCCCCCCCCCCCCCCC(=O)O)C(=O)O)C(=O)N[C@@H](CCC(N)=O)C(=O)N[C@H](C(=O)N[C@@H](CC(C)C)C(=O)N[C@@H](CC(C)C)C(=O)N[C@@H](CCCCN)C(=O)N[C@@H](CCC(N)=O)C(=O)N[C@@H](CCC(=O)O)C(=O)N[C@@H](CCCNC(=N)N)C(=O)N[C@@H](CCC(N)=O)C(=O)N[C@@H](CCCCN)C(=O)N[C@@H](CCCCN)C(=O)NC(C)(C)C(=O)N[C@@H](CCCNC(=N)N)C(=O)N[C@@H](CCC(N)=O)C(=O)N[C@@H](CCCCN)C(=O)N[C@@H](C)C(=O)N[C@@H](CCC(=O)O)C(=O)N[C@@H](CCCCN)C(=O)N[C@@H](CC(N)=O)C(=O)N[C@@H](CCCCN)C(=O)N[C@@H](CCC(N)=O)C(=O)N[C@H](C(=O)N[C@@H](CC(C)C)C(=O)N[C@@H](C)C(=O)N[C@@H](CCC(N)=O)C(=O)N[C@H](C(N)=O)C(C)C)[C@@H](C)CC)[C@@H](C)CC)[C@@H](C)CC)C(C)C)C(C)C [compound 136] (H-IVLSLD[dV]PIKLK([AEEA-AEEA-γGlu-C18 diacid])QILLKQERQKK[Aib]RQKAEKNKQILAQV-NH2; N-terminus assumed)	2.75 ± 0.14 nm	98 ± 3%	2.70 ± 0.28 nm	97 ± 2%	2.40 ± 0.15 nm	98 ± 3%	2.48 ± 0.07 nm	98 ± 2%	0.38 nM	0.05 nM	2.41 nM	> 1000 nM	21.8%					
CC[C@H](C)[C@H](N)C(=O)N[C@H](C(=O)N[C@@H](CC(C)C)C(=O)N[C@@H](CO)C(=O)N[C@@H](CC(C)C)C(=O)N[C@@H](CC(=O)O)C(=O)N[C@@H](C(=O)N1CCC[C@H]1C(=O)N[C@H](C(=O)N[C@@H](CCCCN)C(=O)N[C@@H](CC(C)C)C(=O)N[C@@H](CCCCNC(=O)COCCOCCNC(=O)COCCOCCNC(=O)CC[C@H](NC(=O)CCCCCCCCCCCCCCCCC(=O)O)C(=O)O)C(=O)N[C@@H](CCC(N)=O)C(=O)N[C@H](C(=O)N[C@@H](CC(C)C)C(=O)N[C@@H](CC(C)C)C(=O)N[C@@H](CCCCN)C(=O)N[C@@H](CCC(N)=O)C(=O)N[C@@H](CCC(=O)O)C(=O)N[C@@H](CCCNC(=N)N)C(=O)N[C@@H](CCC(N)=O)C(=O)N[C@@H](CCCCN)C(=O)N[C@@H](CCCCN)C(=O)N[C@@H](CCC(N)=O)C(=O)N[C@@H](CCCNC(=N)N)C(=O)N[C@@H](CCC(=O)O)C(=O)N[C@@H](CCC(N)=O)C(=O)N[C@@H](C)C(=O)N[C@@H](CCC(=O)O)C(=O)N[C@@H](CCCCN)C(=O)N[C@@H](CC(N)=O)C(=O)N[C@@H](CCCCN)C(=O)N[C@@H](CCC(N)=O)C(=O)N[C@H](C(=O)N[C@@H](CC(C)C)C(=O)N[C@@H](CCC(=O)O)C(=O)N[C@@H](CCC(N)=O)C(=O)N[C@H](C(N)=O)C(C)C)[C@@H](C)CC)[C@@H](C)CC)[C@@H](C)CC)C(C)C)C(C)C [compound 137] (H-IVLSLD[dV]PIKLK([AEEA-AEEA-γGlu-C18 diacid])QILLKQERQKKQREQAEKNKQILEQV-NH2; N-terminus assumed)	3.31 ± 0.15 nm	94 ± 1%	3.34 ± 0.25 nm	100 ± 0%	2.66 ± 0.13 nm	84 ± 6%	2.65 ± 0.11 nm	88 ± 9%	0.14 nM	0.04 nM	1.78 nM	> 1000 nM	22.5%	3.50 ± 0.03 nm	100 ± 0%	3.60 ± 0.10 nm	100 ± 0%	Apparent Rh [nm] 0 weeks [1, 7]: 2.38 ± 0.13 nm; Scattering Intensity (I) [%] 0 weeks [1, 7]: 98 ± 2%; Apparent Rh [nm] 4 weeks [1, 7]: 2.59 ± 0.07 nm; Scattering Intensity (I) [%] 4 weeks [1, 7]: 100 ± 0%
CC[C@H](C)[C@H](N)C(=O)N[C@H](C(=O)N[C@@H](CC(C)C)C(=O)N[C@@H](CO)C(=O)N[C@@H](CC(C)C)C(=O)N[C@@H](CC(=O)O)C(=O)N[C@@H](C(=O)N1CCC[C@H]1C(=O)N[C@H](C(=O)N[C@@H](CCCCN)C(=O)N[C@@H](CC(C)C)C(=O)N[C@@H](CCCCNC(=O)COCCOCCNC(=O)COCCOCCNC(=O)CC[C@H](NC(=O)CCCCCCCCCCCCCCCCC(=O)O)C(=O)O)C(=O)N[C@@H](CCC(N)=O)C(=O)N[C@H](C(=O)N[C@@H](CC(C)C)C(=O)N[C@@H](CC(C)C)C(=O)N[C@@H](CCCCN)C(=O)N[C@@H](CCC(N)=O)C(=O)N[C@@H](CCC(=O)O)C(=O)N[C@@H](CCCNC(=N)N)C(=O)N[C@@H](CCC(N)=O)C(=O)N[C@@H](CCCCN)C(=O)N[C@@H](CCCCN)C(=O)N[C@@H](CCC(N)=O)C(=O)N[C@@H](CCCNC(=N)N)C(=O)N[C@@H](CCC(N)=O)C(=O)N[C@@H](CCC(N)=O)C(=O)N[C@@H](C)C(=O)N[C@@H](CCC(=O)O)C(=O)N[C@@H](CCCCN)C(=O)N[C@@H](CC(N)=O)C(=O)N[C@@H](CCCCN)C(=O)N[C@@H](CCC(N)=O)C(=O)N[C@H](C(=O)N[C@@H](CC(C)C)C(=O)N[C@@H](C)C(=O)N[C@@H](CCC(N)=O)C(=O)N[C@H](C(N)=O)C(C)C)[C@@H](C)CC)[C@@H](C)CC)[C@@H](C)CC)C(C)C)C(C)C [compound 139] (H-IVLSLD[dV]PIKLK([AEEA-AEEA-γGlu-C18 diacid])QILLKQERQKKQRQQAEKNKQILAQV-NH2; N-terminus assumed)	3.04 ± 0.08 nm	98 ± 1%	3.13 ± 0.22 nm	95 ± 4%	2.38 ± 0.23 nm	96 ± 3%	2.56 ± 0.29 nm	100 ± 0%	0.1 nM	0.03 nM	1.31 nM	> 1000 nM	37.6%	2.94 ± 0.32 nm	96 ± 5%	3.11 ± 0.14 nm	93 ± 3%	

Reference: patent US12679878B2, “CRF2 receptor agonists and their use in therapy” (SANOFI, priority 2020, dated 2026)
